Test results reported in patent US20160367623A1, “AGONISTS OF GUANYLATE CYCLASE USEFUL FOR THE TREATMENT OF GASTROINTESTINAL DISORDERS, INFLAMMATION, CANCER AND OTHER DISORDERS” (priority 2015, published 2016).
Bridge positions count the residues as written; N and C are the ends. Ends that are not written are not given here.

System: patients with chronic idiopathic constipation (CIC)
Test: Second phase 3 CIC trial: CSBM weekly responders by week
Format: in vivo, human
Settings: MRA
Excerpt: Both trials include a two-week pre-treatment baseline period, a 12-week treatment period, and a two-week post-treatment period. The phase 3 CIC program was designed to support regulatory submission in the U. S.
The primary endpoint for both trials is the proportion of durable overall responders (%), which is the current regulatory endpoint required for U.S. approval in CIC. The FDA has defined a durable overall responder as a patient who fulfills both ≧3 complete spontaneous bowel movements (CSBMs) per week plus an increase of ≧1 CSBM from baseline in the same week, for 9 out of the 12 treatment weeks. In addition, the same patient must be an overall responder for at least 3 of the last 4 treatment weeks in order to be considered a durable overall responder.
Patients were selected using Rome 3 criteria modified for CIC and had (1) fewer than 3 defecations per week, (2) loose stools occurring rarely without laxatives, (3) inadequate criteria for irritable bowel syndrome with constipation (IBS-C), and (4) at least two of the following applied to at least 25% of defecations: (a) straining during evacuation, (b) lumpy or hard stools, (c) sensation of anorectal obstruction or blockage. Rome 3 requires patients to fulfill the criteria for the last 3 months with symptom onset at least 6 months prior to diagnosis.

[1] = Week 6, 3 mg, ITT Population-Excluding Duplicate Patients
[2] = Week 6, 6 mg, ITT Population-Excluding Duplicate Patients
[3] = Week 6, Active Combined, ITT Population-Excluding Duplicate Patients
[4] = Week 6, Active Combined, ITT Population
[5] = Week 7, 3 mg, ITT Population-Excluding Duplicate Patients
[6] = Week 7, 6 mg, ITT Population-Excluding Duplicate Patients
[7] = Week 7, Active Combined, ITT Population-Excluding Duplicate Patients
[8] = Week 7, Active Combined, ITT Population
[9] = Week 8, 3 mg, ITT Population-Excluding Duplicate Patients
[10] = Week 8, 6 mg, ITT Population-Excluding Duplicate Patients
[11] = Week 8, Active Combined, ITT Population-Excluding Duplicate Patients
[12] = Week 8, Active Combined, ITT Population
[13] = Week 9, 3 mg, ITT Population-Excluding Duplicate Patients
[14] = Week 9, 6 mg, ITT Population-Excluding Duplicate Patients

Asn^1-Asp^2-Glu^3-Cys^4-Glu^5-Leu^6-Cys^7-Val^8-Asn^9-Val^10-Ala^11-Cys^12-Thr^13-Gly^14-Cys^15-Leu^16 (NDECELCVNVACTGCL; disulfide 4-12, 7-15) [Plecanatide, uroguanylin analogue, guanylate cyclase-C agonist; (C4:C12, C7:C15) bicycle peptide]
Non-Responders, n (%) (Week 5, Active Combined, ITT Population): 605 (67.8) n (%) | Difference in Proportions (adjusted) (Week 6, 3 mg minus placebo, All Randomized (includes Duplicate Patients)): 0.100 | Odds Ratio (adjusted) (Week 6, 3 mg vs placebo, All Randomized (includes Duplicate Patients)): 0.593 | CSBM Weekly Responders, n (%) (Week 6, 3 mg, ITT Population): 137 (30.9) n (%) | Non-Responders, n (%) (Week 6, 3 mg, ITT Population): 306 (69.1) n (%) | CSBM Weekly Responders, n (%) [1]: 136 (31.3) n (%) | Non-Responders, n (%) [1]: 298 (68.7) n (%) | Difference in Proportions (adjusted) (Week 6, 6 mg minus placebo, All Randomized (includes Duplicate Patients)): 0.110 | Odds Ratio (adjusted) (Week 6, 6 mg vs placebo, All Randomized (includes Duplicate Patients)): 0.566 | CSBM Weekly Responders, n (%) (Week 6, 6 mg, ITT Population): 146 (32.5) n (%) | Non-Responders, n (%) (Week 6, 6 mg, ITT Population): 303 (67.5) n (%) | CSBM Weekly Responders, n (%) [2]: 146 (33.0) n (%) | Non-Responders, n (%) [2]: 297 (67.0) n (%) | Difference in Proportions (adjusted) (Week 6, 3 mg minus placebo, ITT Population-Excluding Duplicate Patients): 0.096 | Difference in Proportions (adjusted) (Week 6, 3 mg minus placebo, ITT Population): 0.093 | Odds Ratio (adjusted) (Week 6, 3 mg vs placebo, ITT Population-Excluding Duplicate Patients): 0.610 | Odds Ratio (adjusted) (Week 6, 3 mg vs placebo, ITT Population): 0.615 | Difference in Proportions (adjusted) (Week 6, 6 mg minus placebo, ITT Population-Excluding Duplicate Patients): 0.112 | Difference in Proportions (adjusted) (Week 6, 6 mg minus placebo, ITT Population): 0.109 | Odds Ratio (adjusted) (Week 6, 6 mg vs placebo, ITT Population-Excluding Duplicate Patients): 0.565 | Odds Ratio (adjusted) (Week 6, 6 mg vs placebo, ITT Population): 0.571 | CSBM Weekly Responders, n (%) [3]: 282 (32.2) n (%) | Non-Responders, n (%) [3]: 595 (67.8) n (%) | CSBM Weekly Responders, n (%) [4]: 283 (31.7) n (%) | Non-Responders, n (%) [4]: 609 (68.3) n (%) | Difference in Proportions (adjusted) (Week 7, 3 mg minus placebo, All Randomized (includes Duplicate Patients)): 0.091 | Odds Ratio (adjusted) (Week 7, 3 mg vs placebo, All Randomized (includes Duplicate Patients)): 0.634 | CSBM Weekly Responders, n (%) (Week 7, 3 mg, ITT Population): 145 (32.7) n (%) | Non-Responders, n (%) (Week 7, 3 mg, ITT Population): 298 (67.3) n (%) | CSBM Weekly Responders, n (%) [5]: 144 (33.2) n (%) | Non-Responders, n (%) [5]: 290 (66.8) n (%) | Difference in Proportions (adjusted) (Week 7, 6 mg minus placebo, All Randomized (includes Duplicate Patients)): 0.075 | Odds Ratio (adjusted) (Week 7, 6 mg vs placebo, All Randomized (includes Duplicate Patients)): 0.681 | CSBM Weekly Responders, n (%) (Week 7, 6 mg, ITT Population): 140 (31.2) n (%) | Non-Responders, n (%) (Week 7, 6 mg, ITT Population): 309 (68.8) n (%) | CSBM Weekly Responders, n (%) [6]: 140 (31.6) n (%) | Non-Responders, n (%) [6]: 303 (68.4) n (%) | Difference in Proportions (adjusted) (Week 7, 3 mg minus placebo, ITT Population-Excluding Duplicate Patients): 0.089 | Difference in Proportions (adjusted) (Week 7, 3 mg minus placebo, ITT Population): 0.085 | Odds Ratio (adjusted) (Week 7, 3 mg vs placebo, ITT Population-Excluding Duplicate Patients): 0.645 | Odds Ratio (adjusted) (Week 7, 3 mg vs placebo, ITT Population): 0.659 | Difference in Proportions (adjusted) (Week 7, 6 mg minus placebo, ITT Population-Excluding Duplicate Patients): 0.074 | Difference in Proportions (adjusted) (Week 7, 6 mg minus placebo, ITT Population): 0.069 | Odds Ratio (adjusted) (Week 7, 6 mg vs placebo, ITT Population-Excluding Duplicate Patients): 0.693 | Odds Ratio (adjusted) (Week 7, 6 mg vs placebo, ITT Population): 0.707 | CSBM Weekly Responders, n (%) [7]: 284 (32.4) n (%) | Non-Responders, n (%) [7]: 593 (67.6) n (%) | CSBM Weekly Responders, n (%) [8]: 285 (32.0) n (%) | Non-Responders, n (%) [8]: 607 (68.0) n (%) | Difference in Proportions (adjusted) (Week 8, 3 mg minus placebo, All Randomized (includes Duplicate Patients)): 0.076 | Odds Ratio (adjusted) (Week 8, 3 mg vs placebo, All Randomized (includes Duplicate Patients)): 0.687 | CSBM Weekly Responders, n (%) (Week 8, 3 mg, ITT Population): 145 (32.7) n (%) | Non-Responders, n (%) (Week 8, 3 mg, ITT Population): 298 (67.3) n (%) | CSBM Weekly Responders, n (%) [9]: 144 (33.2) n (%) | Non-Responders, n (%) [9]: 290 (66.8) n (%) | Difference in Proportions (adjusted) (Week 8, 6 mg minus placebo, All Randomized (includes Duplicate Patients)): 0.067 | Odds Ratio (adjusted) (Week 8, 6 mg vs placebo, All Randomized (includes Duplicate Patients)): 0.716 | CSBM Weekly Responders, n (%) (Week 8, 6 mg, ITT Population): 144 (32.1) n (%) | Non-Responders, n (%) (Week 8, 6 mg, ITT Population): 305 (67.9) n (%) | CSBM Weekly Responders, n (%) [10]: 143 (32.3) n (%) | Non-Responders, n (%) [10]: 300 (67.7) n (%) | Difference in Proportions (adjusted) (Week 8, 3 mg minus placebo, ITT Population-Excluding Duplicate Patients): 0.073 | Difference in Proportions (adjusted) (Week 8, 3 mg minus placebo, ITT Population): 0.069 | Odds Ratio (adjusted) (Week 8, 3 mg vs placebo, ITT Population-Excluding Duplicate Patients): 0.703 | Odds Ratio (adjusted) (Week 8, 3 mg vs placebo, ITT Population): 0.717 | Difference in Proportions (adjusted) (Week 8, 6 mg minus placebo, ITT Population-Excluding Duplicate Patients): 0.064 | Difference in Proportions (adjusted) (Week 8, 6 mg minus placebo, ITT Population): 0.062 | Odds Ratio (adjusted) (Week 8, 6 mg vs placebo, ITT Population-Excluding Duplicate Patients): 0.731 | Odds Ratio (adjusted) (Week 8, 6 mg vs placebo, ITT Population): 0.738 | CSBM Weekly Responders, n (%) [11]: 287 (32.7) n (%) | Non-Responders, n (%) [11]: 590 (67.3) n (%) | CSBM Weekly Responders, n (%) [12]: 289 (32.4) n (%) | Non-Responders, n (%) [12]: 603 (67.6) n (%) | Difference in Proportions (adjusted) (Week 9, 3 mg minus placebo, All Randomized (includes Duplicate Patients)): 0.084 | Odds Ratio (adjusted) (Week 9, 3 mg vs placebo, All Randomized (includes Duplicate Patients)): 0.656 | CSBM Weekly Responders, n (%) (Week 9, 3 mg, ITT Population): 147 (33.2) n (%) | Non-Responders, n (%) (Week 9, 3 mg, ITT Population): 296 (66.8) n (%) | CSBM Weekly Responders, n (%) [13]: 146 (33.6) n (%) | Non-Responders, n (%) [13]: 288 (66.4) n (%) | Difference in Proportions (adjusted) (Week 9, 6 mg minus placebo, All Randomized (includes Duplicate Patients)): 0.073 | Odds Ratio (adjusted) (Week 9, 6 mg vs placebo, All Randomized (includes Duplicate Patients)): 0.691 | CSBM Weekly Responders, n (%) (Week 9, 6 mg, ITT Population): 141 (31.4) n (%) | Non-Responders, n (%) (Week 9, 6 mg, ITT Population): 308 (68.6) n (%) | CSBM Weekly Responders, n (%) [14]: 140 (31.6) n (%) | Non-Responders, n (%) [14]: 303 (68.4) n (%) | Difference in Proportions (adjusted) (Week 9, 3 mg minus placebo, ITT Population-Excluding Duplicate Patients): 0.082 | Difference in Proportions (adjusted) (Week 9, 3 mg minus placebo, ITT Population): 0.082 | Odds Ratio (adjusted) (Week 9, 3 mg vs placebo, ITT Population-Excluding Duplicate Patients): 0.673 | Odds Ratio (adjusted) (Week 9, 3 mg vs placebo, ITT Population): 0.67 | Difference in Proportions (adjusted) (Week 9, 6 mg minus placebo, ITT Population-Excluding Duplicate Patients): 0.062 | Difference in Proportions (adjusted) (Week 9, 6 mg minus placebo, ITT Population): 0.065 | Odds Ratio (adjusted) (Week 9, 6 mg vs placebo, ITT Population-Excluding Duplicate Patients): 0.738
